According to US20260315476A1, “COMBINATION TREATMENT METHODS FOR CANCER WITH TP53 MUTATION” (HO'OLA THERAPEUTICS INC., priority 2022, published 2026):
Read-outs that look alike come from different tables or passages of the source.

Experiments:
[1] = test system: mantle cell lymphoma (MCL); conditions: historical, cited from earlier work
[2] = test system: mantle cell lymphoma (MCL); conditions: MCL Rule 2017, Relapsed/Refractory, N = 370; cited from earlier work
[3] = test system: chronic lymphocytic leukemia (CLL); conditions: Byrd 2019, cited from earlier work
[4] = test system: chronic lymphocytic leukemia (CLL); test: Clinical response rates in CLL (Phase 1/2 study, Parts 1 & 2 and Part 3); format: in vivo, human
Protocol: (§1) In Phase 1 study (Part 1), patients with relapsed/refractory (R/R) mantle cell lymphoma (MCL) and R/R chronic lymphocytic leukemia/small lymphocytic lymphoma (CLL/SLL) were enrolled (CLL n=18, MCL n=12). 2, 4, 8, and 16 mg/kg and 300 mg and 600 mg doses of zilovertamab (formerly known as cirmtuzumab) were evaluated. Ibrutinib was added to the treatment after 1 month at dose of 420 mg for CLL, 560 mg for MCL. The recommended dosing regime was 600 mg of zilovertamab (i.v.) once every 2 weeks by three times and then once every 4 weeks in combination with ibrutinib at approved doses per indication (i.e., 420 mg for CLL, 560 mg for MCL).
(§2) In Phase 2 study, patients were divided into two study groups. In study group 1 (Part 2), patients with R/R CLL, R/R MCL, and marginal zone lymphoma (MZL) were enrolled (CLL n=16, MCL n=21). The patients were treated with the recommended dosing regimen from Phase 1 study, that is, zilovertamab (600 mg) and ibrutinib at approved dose (420 mg CLL, 560 mg MCL and MZL). In study group 2 (Part 3), patients with R/R CLL (n=31) were enrolled and randomly treated with either zilovertamab in combination with ibrutinib or ibrutinib alone.

[5] = MCL patients treated with BTKi (e.g., ibrutinib) alone; cited from earlier work
[6] = Treatment emergent adverse events, CLL Part 3; format: in vivo, human
Protocol: as §2

[7] = Patient disposition and overall tolerability; format: in vivo, human; conditions: CLL Part 3
Protocol: as §1, §2

[8] = test system: chronic lymphocytic leukemia (CLL); test: Clinical response rates in CLL (Phase 1/2 study, Parts 1 & 2 and Part 3); format: in vivo, human; conditions: Part 3, TN
[9] = test system: chronic lymphocytic leukemia (CLL); test: Overall survival in CLL; format: in vivo, human; conditions: CLL patients
Protocol: as §1, §2

[10] = test system: mantle cell lymphoma (MCL); test: Overall survival in MCL; format: in vivo, human; conditions: MCL patients
Protocol: as §1, §2

[11] = test system: mantle cell lymphoma (MCL); conditions: historical, cited from earlier work; remark: listed apart in the source
[12] = Rule 2019, No p53 mutation, N = 124
[13] = Rule 2019, p53 mutation, N = 20

## C=CC(=O)N1CCC[C@@H](n2nc(-c3ccc(Oc4ccccc4)cc3)c3c(N)ncnc32)C1 [ibrutinib, 1-[(3R)-3[4-Amino-3-(4-phenoxyphenyl)-1H-pyrazolo[3,4-d]pyrimidin-1-yl]piperidin-1-yl]prop-2-en-1-one]
[1]; Rule 2019, No p53 Mutation
  M PFS (95% CI): 12.0 (7.1, 15.6)
[1]; Rule 2019, p53 Mutation
  M PFS (95% CI): 4.0 (2.1, 8.3)
[2]
  median OS: 25.0
[3]; 24 months, 1 or 2 prior systemic therapies
  Landmark PFS: ~82%
[3]; 24 months, >2 prior systemic therapies
  Landmark PFS: ~65%
[3]; 36 months, 1 or 2 prior systemic therapies
  Landmark PFS: ~73%
[3]; 36 months, >2 prior systemic therapies
  Landmark PFS: ~50%
[4]; CLL Part 3
  Complete Response (CR): 1 (14.3) n (%)
  Median Duration of response (95% CI): NR (8.3, NE)
  Overall Response Rate (ORR): 7 (100.0) n (%)
  Partial Response (PR): 6 (85.7) n (%)
[4]; Part 3, 1 Prior
  CR: 0 n
  PD: 0 n
[4]; Part 3, Overall
  PD: 0 n
[4]; Part 3, ≥3 Prior
  CR: 0 n
  Median DoR: 8.3 months
  PD: 0 n
[5]
  Grade 3 or 4 neutrophil decrease: 29%
[6]
  Atrial Fibrillation, Grades 1-2: 1 (10.0) n (%)
  Atrial Fibrillation, Grades ≥3: 1 (10.0) n (%)
  Atrial Fibrillation, Overall: 2 (20.0) n (%)
  Back pain, Grades 1-2: 2 (20.0) n (%)
  Back pain, Grades ≥3: 0 n (%)
  Back pain, Overall: 2 (20.0) n (%)
  Constipation, Grades 1-2: 3 (30.0) n (%)
  Constipation, Grades ≥3: 0 n (%)
  Constipation, Overall: 3 (30.0) n (%)
  Contusion, Grades 1-2: 3 (30.0) n (%)
  Contusion, Grades ≥3: 0 n (%)
  Contusion, Overall: 3 (30.0) n (%)
  Coronavirus Infection, Grades 1-2: 1 (10.0) n (%)
  Coronavirus Infection, Grades ≥3: 1 (10.0) n (%)
  Coronavirus Infection, Overall: 2 (20.0) n (%)
  Diarrhea, Grades 1-2: 4 (40.0) n (%)
  Diarrhea, Grades ≥3: 0 n (%)
  Diarrhea, Overall: 4 (40.0) n (%)
  Dizziness, Grades 1-2: 3 (30.0) n (%)
  Dizziness, Grades ≥3: 0 n (%)
  Dizziness, Overall: 3 (30.0) n (%)
  Fall, Grades 1-2: 2 (20.0) n (%)
  Fall, Grades ≥3: 0 n (%)
  Fall, Overall: 2 (20.0) n (%)
  Fatigue, Grades 1-2: 2 (20.0) n (%)
  Fatigue, Grades ≥3: 0 n (%)
  Fatigue, Overall: 2 (20.0) n (%)
  Headache, Grades 1-2: 3 (30.0) n (%)
  Headache, Grades ≥3: 1 (10.0) n (%)
  Headache, Overall: 4 (40.0) n (%)
  Hematuria, Grades 1-2: 3 (30.0) n (%)
  Hematuria, Grades ≥3: 0 n (%)
  Hematuria, Overall: 3 (30.0) n (%)
  Hemoglobin decrease, Grades 1-2: 6 (60.0) n (%)
  Hemoglobin decrease, Grades ≥3: 1 (10.0) n (%)
  Hemoglobin decrease, Overall: 7 (70.0) n (%)
  Hypertension, Grades 1-2: 1 (10.0) n (%)
  Hypertension, Grades ≥3: 1 (10.0) n (%)
  Hypertension, Overall: 2 (20.0) n (%)
  Muscle spasms, Grades 1-2: 2 (20.0) n (%)
  Muscle spasms, Grades ≥3: 0 n (%)
  Muscle spasms, Overall: 2 (20.0) n (%)
  Nausea, Grades 1-2: 3 (30.0) n (%)
  Nausea, Grades ≥3: 0 n (%)
  Nausea, Overall: 3 (30.0) n (%)
  Neutrophils decrease, Grades 1-2: 1 (10.0) n (%)
  Neutrophils decrease, Grades ≥3: 2 (20.0) n (%)
  Neutrophils decrease, Overall: 3 (30.0) n (%)
  Platelets decrease, Grades 1-2: 7 (70.0) n (%)
  Platelets decrease, Grades ≥3: 1 (10.0) n (%)
  Platelets decrease, Overall: 8 (80.0) n (%)
  Pneumonia, Grades 1-2: 0 n (%)
  Pneumonia, Grades ≥3: 2 (20.0) n (%)
  Pneumonia, Overall: 2 (20.0) n (%)
  Pruritis, Grades 1-2: 2 (20.0) n (%)
  Pruritis, Grades ≥3: 0 n (%)
  Pruritis, Overall: 2 (20.0) n (%)
  Upper respiratory tract infection, Grades 1-2: 3 (30.0) n (%)
  Upper respiratory tract infection, Grades ≥3: 0 n (%)
  Upper respiratory tract infection, Overall: 3 (30.0) n (%)
[7]
  Study discontinuation: Death: 0 n
[8]
  CR: 0 n
  PD: 0 n
[9]
  median OS: not reached
[10]
  median OS: not reached
[11]; Rule 2017, N = 370
  CR: 74 (20.0) n (%)
  ORR: 234 (63.2) n (%)
  PD: 86 (23.2) n (%)
[11]; [12]
  CR: 31 (25.0) n (%)
  ORR: 87 (70.2) n (%)
  PR: 56 (45.2) n (%)
[11]; [13]
  CR: 0 n (%)
  ORR: 11 (55.0) n (%)
  PR: 11 (55.0) n (%)
